Reference: patent US11149031B2, “Substituted N-(3-fluoropropyl)-pyrrolidine compounds, processes for their preparation and therapeutic uses thereof” (SANOFI, priority 2016, dated 2021)
Like-named read-outs stand apart in the source and are kept apart here.

Assays:
ERα in MCF7 cells = ERα in MCF7 cells (Homo sapiens (Human), UniProt P03372); assay: Test C: estrogen receptor degradation activity, ERα in cell western assay in MCF7 cells; type: cell-based; details: for DC50: 4 hours post compound addition, ERα in cell western, read-out: Degradation IC50; for % Degradation at 3 μM: 4 hours, relative to fulvestrant
Summary of the method: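 In-cell western: ERα level (green) against DNA stain Syto-64 (red) by integrated intensity. MCF7 cells in hormone-depleted medium exposed 4 h to compound at 3-0.000018 μM final (1:5 series); fulvestrant 0.1 μM as positive control.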

[1] = target: His6-ERα298-554 D538G mutant (ERα ligand-binding domain) (Homo sapiens (Human), UniProt P03372, D538G); assay: Test A: biochemical antagonist activity, LanthaScreen TR-FRET ERα coactivator assay, D538G mutant; details: asterisk (*): protocol using 10 nM estradiol; read-out: Antagonism D538G IC50
Summary of the method: (§1)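 IC50 values come from a 4-parameter logistic fit of the 520:495 nm TR-FRET ratio after overnight room-temperature incubation. The mix held 0.5 nM ERα 298–554 LBD, Tb-labelled anti-His6 antibody, 250 nM PGC1a peptide and 3 nM or 10 nM estradiol, pH 7.4 phosphate buffer with DTT.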

[2] = system: MCF7 cells expressing mutant estrogen receptor Asp 538 Gly; assay: Test B: cell proliferation/viability assay (CellTiter-Glo) on MCF7 Asp 538 Gly mutant; type: cell-based; details: MCF7 cells expressing ER Asp 538 Gly mutant, 7 days of compound exposure, read-out: proliferation MCF7 D538G IC50
Text: (§2) Test B: Cell Proliferation/Viability Assay on MCF7 (Breast Tumor Cells) WT and Mutants Cell Lines
(§3) Test B involves measuring the in vitro proliferation activity of the compounds of the invention by analyzing the viability of the tumor cells.
(§4) The measurements of the viability were made using a breast cancer cell viability assay as described hereunder.
(§5) MCF7 cells expressing (and dependent) on mutants estrogen receptor Tyr 537 Ser or Asp 538 Gly were generated by transfection of MCF7 parental cells (ATCC) with expression vectors coding for different mutants of estrogen receptor Tyr 537 Ser or Asp 538 Gly. The cells were first selected by antibiotic (related to vector expression) and then selected for their growth dependence on estrogen receptor based on their ability to grow in vitro in absence of estradiol (parental cell line die in absence of estradiol).
(§6) MCF7 cells (ATCC) or MCF7 cells expressing (and dependent) on mutants estrogen receptor Tyr 537 Ser or Asp 538 Gly were seeded in 384 wells microplate at concentration of >999 cells/30 μL per well in red phenol free MEM medium containing 5% charcoal dextran striped FBS. The following day, 9 points serial 1:5 dilution of each compound were added to the cells in 20 μL at final concentrations ranging from 3-0.000001 μM. After 7 days of compound exposure, 50 μL of CellTiter-Glo (promega) was added to the cells and relative luminescence arbitrary units (RLUs) were determined in luminescence plate reader (Envision device). CellTiter-Glo was added to 50 μL medium without cells to determine the background signal.
(§7) The percent of viability of each sample was determined as follows: (RLU sample−RLU background/RLU untreated−RLU background)*100=% viability.

[3] = target: His6-ERα298-554 WT (ERα ligand-binding domain) (Homo sapiens (Human), UniProt P03372); assay: Test A: biochemical antagonist activity, LanthaScreen TR-FRET ERα coactivator assay, WT; details: asterisk (*): protocol using 10 nM estradiol; read-out: Antagonism WT IC50
Summary of the method: as §1

[4] = system: MCF7 cells expressing mutant estrogen receptor Tyr 537 Ser; assay: Test B: cell proliferation/viability assay (CellTiter-Glo) on MCF7 Tyr 537 Ser mutant; type: cell-based; details: MCF7 cells expressing ER Tyr 537 Ser mutant, 7 days of compound exposure, read-out: proliferation MCF7 Y537S IC50
Text: as §2, §3, §4, §5, §6, §7

[5] = target: His6-ERα298-554 Y537S mutant (ERα ligand-binding domain) (Homo sapiens (Human), UniProt P03372, Y537S); assay: Test A: biochemical antagonist activity, LanthaScreen TR-FRET ERα coactivator assay, Y537S mutant; details: asterisk (*): protocol using 10 nM estradiol; read-out: Antagonism Y537S IC50
Summary of the method: as §1

[6] = system: MCF7 cells (breast tumor cells) WT; assay: Test B: cell proliferation/viability assay (CellTiter-Glo) on MCF7 WT; type: cell-based; details: 7 days of compound exposure
Description: as §2, §3
The measurements of the viability were made using a breast cancer cell viability assay as described hereunder. […]
as §6, §7

Chain of His6-ERα298-554 WT (ERα ligand-binding domain) (P03372 298-554): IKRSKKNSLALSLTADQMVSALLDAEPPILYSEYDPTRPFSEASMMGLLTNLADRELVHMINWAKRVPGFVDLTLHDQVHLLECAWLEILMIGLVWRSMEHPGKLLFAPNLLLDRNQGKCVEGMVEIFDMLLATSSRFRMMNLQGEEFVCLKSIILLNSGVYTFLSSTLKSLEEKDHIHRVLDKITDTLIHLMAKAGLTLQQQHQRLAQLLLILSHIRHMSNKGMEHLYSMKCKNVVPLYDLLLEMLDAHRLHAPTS
Chain of ERα in MCF7 cells (P03372 whole entry): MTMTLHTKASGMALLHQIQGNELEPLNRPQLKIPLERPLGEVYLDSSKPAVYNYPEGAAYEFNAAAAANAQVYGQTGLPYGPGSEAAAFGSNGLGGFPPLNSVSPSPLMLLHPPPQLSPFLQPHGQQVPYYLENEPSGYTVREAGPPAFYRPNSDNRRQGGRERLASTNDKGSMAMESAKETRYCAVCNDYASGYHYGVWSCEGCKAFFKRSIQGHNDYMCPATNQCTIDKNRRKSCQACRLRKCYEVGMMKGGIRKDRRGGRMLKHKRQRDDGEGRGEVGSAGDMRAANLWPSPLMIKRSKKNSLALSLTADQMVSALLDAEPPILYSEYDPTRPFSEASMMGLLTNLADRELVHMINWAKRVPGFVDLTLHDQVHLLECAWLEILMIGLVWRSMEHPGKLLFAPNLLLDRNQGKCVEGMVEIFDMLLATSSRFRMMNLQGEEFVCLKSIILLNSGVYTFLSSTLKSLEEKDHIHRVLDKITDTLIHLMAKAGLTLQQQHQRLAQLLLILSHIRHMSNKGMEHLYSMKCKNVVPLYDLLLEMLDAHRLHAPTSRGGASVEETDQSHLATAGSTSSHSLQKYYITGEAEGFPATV
Chain of His6-ERα298-554 D538G mutant (ERα ligand-binding domain) (P03372 298-554 D538G): as the sequence (P03372 298-554) above, with D241G counted along it
Chain of His6-ERα298-554 Y537S mutant (ERα ligand-binding domain) (P03372 298-554 Y537S): as the sequence (P03372 298-554) above, with Y240S counted along it

Structure (SMILES) | DC50 (ERα in MCF7 cells) [nM] | % Degradation at 3 μM (ERα in MCF7 cells) [%] | IC50 [1] [nM] | IC50 ([2]; Homo sapiens, MCF7, 168 h) [nM] | IC50 [3] [nM] | IC50 ([4]; Homo sapiens, MCF7, 168 h) [nM] | IC50 [5] [nM] | IC50 [6] [nM] | IC50 [2] [nM] | IC50 [4] [nM] | IC50 ([6]; Homo sapiens, MCF7, 168 h) [nM]
Cc1ccc(C2=C(c3ccc(O[C@H]4CCN(CCCF)C4)cc3)c3ccc(O)cc3[S+]([O-])C2)c(F)c1 (single isomer, unassigned) [Example 70] | 25 | 73 | > 4000 | 97 | 1660 | 478 | > 4000 | 64 |  |  | 
Cc1ccc(C2=C(c3ccc(O[C@H]4CCN(CCCF)C4)cc3)c3ccc(O)cc3[S+]([O-])C2)c(F)c1 (single isomer, unassigned) [Example 71] | 11 | 75 | > 4000 |  | 2740 |  | > 4000 | 12 | 88 | 414 | 
[O-][S+]1CCC(c2ccc(OC(F)(F)F)cc2)=C(c2ccc(O[C@H]3CCN(CCCF)C3)cc2)c2ccc(O)cc21 (single isomer, unassigned) [Example 226] | 103 | 93 | > 4000 |  | > 4000 |  | > 4000 | 87 | 288 | > 999 | 
[O-][S+]1CCC(c2ccc(OC(F)(F)F)cc2)=C(c2ccc(O[C@H]3CCN(CCCF)C3)cc2)c2ccc(O)cc21 (single isomer, unassigned) [Example 227] | 4 | 90 | 3330 |  | 392 |  | 3500 | 6 | 9 | 134 | 
CC1Cc2c([nH]c3ccccc23)C(c2c(F)cc(O[C@H]3CCN(CCCF)C3)cc2F)N1CC(C)(C)F (single isomer, unassigned) [Example 256] | 0.2 | 91 | 120 |  | 6 |  | 101 | 0.1 | 0.7 | 2 | 
CC1Cc2c([nH]c3ccccc23)C(c2c(F)cc(O[C@H]3CCN(CCCF)C3)cc2F)N1CC(C)(C)F (single isomer, unassigned) [Example 257] | 37 | 87 | > 4000 |  | 3310 |  | > 4000 | 18 | 85 | 272 | 
Oc1ccc2c(c1)C(c1ccc(O[C@H]3CCN(CCCF)C3)cc1)=C(c1ccc(OC(F)(F)F)cc1Cl)CC2 [Example 7, 7-[2-chloro-4-(trifluoromethoxy)phenyl]-8-[4-[(3S)-1-(3-fluoropropyl)pyrrolidin-3-yl]oxyphenyl]-5,6-dihydronaphthalen-2-ol] | 22 | 82 | > 4000 | 18 | 1470 | > 999 | > 4000 |  |  |  | 13
Oc1ccc2c(c1)CCC(c1ccc(OC(F)(F)F)cc1)=C2c1ccc(O[C@H]2CCN(CCCF)C2)cc1 [Example 12, 5-[4-[(3S)-1-(3-fluoropropyl)pyrrolidin-3-yl]oxyphenyl]-6-[4-(trifluoromethoxy)phenyl]-7,8-dihydronaphthalen-2-ol] |  |  |  | 5 |  | 9 |  |  |  |  | 1
Oc1ccc2c(c1)CCC(c1ccc(F)cc1Cl)=C2c1ccc(O[C@H]2CCN(CCCF)C2)cc1 [Example 13, 6-(2-chloro-4-fluoro-phenyl)-5-[4-[(3S)-1-(3-fluoropropyl)pyrrolidin-3-yl]oxyphenyl]-7,8-dihydronaphthalen-2-ol] |  |  |  | 3 |  | 8 |  |  |  |  | 0.4
Oc1ccc2c(c1)CCC(c1ccc(Cl)cc1Cl)=C2c1ccc(O[C@H]2CCN(CCCF)C2)cc1 [Example 14, 6-(2,4-dichlorophenyl)-5-[4-[(3S)-1-(3-fluoropropyl)pyrrolidin-3-yl]oxyphenyl]-7,8-dihydronaphthalen-2-ol] |  |  |  | 1 |  | 6 |  |  |  |  | 0.5
Oc1ccc(C2=C(c3ccc(O[C@H]4CCN(CCCF)C4)cc3)c3ccc(O)cc3CC2)cc1 [Example 15, 5-[4-[(3S)-1-(3-fluoropropyl)pyrrolidin-3-yl]oxyphenyl]-6-(4-hydroxyphenyl)-7,8-dihydronaphthalen-2-ol] |  |  |  | 25 |  | 30 |  |  |  |  | 0.2
Cc1ccc(C2=C(c3ccc(O[C@H]4CCN(CCCF)C4)cc3)c3ccc(O)cc3SC2)c(Cl)c1 [Example 58, 3-(2-chloro-4-methyl-phenyl)-4-[4-[(3S)-1-(3-fluoropropyl)pyrrolidin-3-yl]oxyphenyl]-2H-thiochromen-7-ol] |  |  |  | 0.8 |  | 5 |  |  |  |  | 2
Cc1nc(C)c(C2=C(c3ccc(O[C@H]4CCN(CCCF)C4)cc3)c3ccc(O)cc3SC2)s1 [Example 68, 3-(2,4-dimethylthiazol-5-yl)-4-[4-[(3S)-1-(3-fluoropropyl)pyrrolidin-3-yl]oxyphenyl]-2H-thiochromen-7-ol] |  |  |  | 7 |  | 125 |  |  |  |  | 14
CC(C)Oc1ccc(C2=C(c3ccc(O[C@H]4CCN(CCCF)C4)cc3)c3ccc(O)cc3OCC2)c(C(F)(F)F)c1.Cl [Example 150, 5-[4-[(3S)-1-(3-fluoropropyl)pyrrolidin-3-yl]oxyphenyl]-4-[4-isopropoxy-2-(trifluoromethyl)phenyl]-2,3-dihydro-1-benzoxepin-8-ol hydrochloride] | 4 | 82 |  | 2 |  | 14 |  |  |  |  | 0.4
Oc1ccc2c(c1)SCCC(c1ccc(Cl)cc1Cl)=C2c1ccc(O[C@H]2CCN(CCCF)C2)cc1 [Example 166, 4-(2,4-dichlorophenyl)-5-[4-[(3S)-1-(3-fluoropropyl)pyrrolidin-3-yl]oxyphenyl]-2,3-dihydro-1-benzothiepin-8-ol] | 2 | 90 |  | 1 |  | 8 |  |  |  |  | 0.2
O=C(O)c1ccc2c(c1)SCCC(c1ccc(Cl)cc1Cl)=C2c1ccc(O[C@H]2CCN(CCCF)C2)cc1 [Example 203, 4-(2,4-dichlorophenyl)-5-[4-[(3S)-1-(3-fluoropropyl)pyrrolidin-3-yl]oxyphenyl]-2,3-dihydro-1-benzothiepine-8-carboxylic acid] | 0.6 | 93 |  | 1 |  | 13 |  |  |  |  | 0.8
Oc1ccc2c(c1)SCCC(c1ccc(Cl)cc1Cl)=C2c1ccc(O[C@H]2CCN(CCCF)C2)nc1 [Example 205, 4-(2,4-dichlorophenyl)-5-[6-[(3S)-1-(3-fluoropropyl)pyrrolidin-3-yl]oxy-3-pyridyl]-2,3-dihydro-1-benzothiepin-8-ol] | 0.4 | 84 |  | 0.2 |  | 3 |  |  |  |  | 0.2
Oc1ccc2c(c1)CCCC(c1ccc(Cl)c(F)c1)=C2c1ncc(O[C@H]2CCN(CCCF)C2)cn1 [Example 254, 6-(4-chloro-3-fluoro-phenyl)-5-[5-[(3S)-1-(3-fluoropropyl)pyrrolidin-3-yl]oxypyrimidin-2-yl]-8,9-dihydro-7H-benzo[7]annulen-2-ol] |  |  |  | 17 |  | 129 |  |  |  |  | 16
